Reference: patent US20090170899A1, “Stimulators of 5-HT4 receptors and uses thereof” (priority 2004, published 2009)

Experiments:
DRN 5-HT neurons [1] = test: Extracellular single-unit recordings of DRN 5-HT neuron mean firing rate in anaesthetized rats; format: in vivo, rat; conditions: prucalopride 2.5 mg/kg, RS 67333 1.5 mg/kg; for enhancement of DRN 5-HT neuron mean firing rate vs control: s.c. osmotic minipumps; for increase of DRN 5-HT neuron firing rate with respect to controls: subacute i.p., 30 min before recordings
Description: In a second part of the study, the selective 5-HT4 agonists prucalopride (Briejer et al., 2001) and RS 67333 (Eglen et al., 1995) were administered either subacutely (i.e. 30 min before the beginning of recordings), or continuously through the use of osmotic minipumps during 3 or 21 days. The selective 5-HT4 antagonist GR 125487 (Gale et al., 1994) was also used to confirm the involvement of 5-HT4 receptors in the effects of the agonists. Successive single-cell extracellular recording tracks were then performed along the DRN of anaesthetized rats. This set of experiments was performed in order to globally assess the effect of such treatments on the mean activity of 5-HT neurons.
Pharmacological treatments. All the 3 different 5-HT4 pharmacological agents were diluted in a solution of physiological saline (NaCl 0.9%), and administered in a dose range known to induce significant binding on 5-HT4 sites (Lucas and Debonnel, 2002; Lamirault and Simon, 2001; Porras et al., 2002). In subacute experiments, prucalopride, RS 67333 or their vehicle were administered i.p. 30 min. before the beginning of recordings. For chronic treatments (both 3 and 21 days), prucalopride, RS 67333 or their vehicle were delivered through osmotic minipumps (Alza, Palo Alto, Calif.) inserted subcutaneously. Electrophysiological recordings were performed with the minipumps in place. […] In a separate set of experiments, the 5-HT4 antagonist GR 125487 was tested in animals treated for 3 days with either prucalopride or RS 67333. Two DRN tracks were first performed, then GR 125487 was administered i.v. (via a lateral vein of the tail) and 2-3 additional tracks were performed, starting 30 min. after the injection. All drug dosages refer to the free base.
Extracellular recordings of DRN 5-HT neurons. Recordings were performed using single-barreled glass micropipettes. Electrodes were filled with a 2 M NaCl solution saturated with Fast Green FCF, resulting in an impedance of 2-5 MΩ. Rats were anaesthetized with chloral hydrate (400 mg/kg, i.p.) and placed in a stereotaxic frame. A burr hole was drilled on the midline 1 mm anterior to lambda. DRN 5-HT neurons were encountered over a distance of 1 mm starting immediately below the ventral border of the Sylvius aqueduct. These neurons were identified using the classical criteria: a slow (0.5-2.5 Hz) and regular firing rate and long-duration (0.8-1.2 ms) positive action potentials (Aghajanian, 1978). In each animal, four to five successive descents were performed along the DRN, and a total of 10-16 cells was recorded. At the end of the experiments, a 25 μA cathodal current was passed through the recording electrode to leave a Fast Green deposit at the recording site. Animals were sacrificed with an i.v. overdose of chloral hydrate, and the brain removed. The site of recording was verified under microscope immediately after experiments.
Statistical analysis. In each experimental group, data were expressed as means±S.E.M. of all the recorded neurons, unless otherwise specified. The effects of the different 5-HT4 agonist administrations on the firing activity of DRN 5-HT neurons was assessed using one-way ANOVAs, followed by the post-hoc Dunnett's test when significant. The influence of GR 125487 on the effect of a 3-day treatment with prucalopride or RS 67333 was assessed using two-way ANOVAs followed by the post-hoc Tukey's test. In all cases, p<0.05 was chosen as the criterion of significance.

[2] = test system: BrdU-positive cells in the sub-granular zone (SGZ) of the hippocampus; test: Hippocampal neurogenesis (BrdU-positive cells) after 3-day treatment; format: in vivo, rat; conditions: RS 67333 1.5 mg/kg/day, 3 days
Description: A and B: Photomicrographs (magnification: 10× and 100× for the small rectangles) representative of the control and RS 67333 group, respectively. Clusters of positive cells were found in the presence of RS 67333 (small rectangles). RS 67333 was administered through the use of osmotic minipumps, inserted subcutaneously in the region of the back. Rats received intraperitoneal injections of BrdU at the dose of 50 mg/kg twice daily (8 h interval), starting from the day of minipump insertion until day 2 post-surgery.
Drugs and Chemicals. The following compounds were used: GR 125487 sulphamate, prucalopride monohydrochloride, citalopram hydrobromide (gifts from Glaxo, Janssen and Lundbeck laboratories, respectively), RS 67333 hydrochloride (Tocris Cookson Inc., Ellisville, Mo., USA), WAY 100635 hydrochloride (Research Biochemicals, Natick, Mass., USA), pCPA methyl ester hydrochloride, BrdU (Sigma-Aldrich Canada, Oakville, Ontario, Canada). All compounds were diluted in distilled water. All drug dosages refer to the free base. For chronic treatments, prucalopride (2.5 mg/kg/day), RS 67333 (1.5 mg/kg/day) or the vehicle were delivered through osmotic minipumps (Alza, Palo Alto, Calif., USA), inserted subcutaneously in the region of the back under short-duration (≦5 min) halothane anesthesia. […]

[3] = test system: CREB phosphorylation in the hippocampus; test: CREB and pCREB immunoreactivities in hippocampal tissue after 3-day treatment; format: in vivo, rat; conditions: 3 days, prucalopride 2.5, RS 67333 1.5 mg/kg/day; for pCREB/CREB ratio in hippocampal tissue: control 0.196±0.02
Description: Drugs and Chemicals. […] All compounds were diluted in distilled water. All drug dosages refer to the free base. […] BrdU treatments consisted of two administrations per day (50 mg/kg, i.p. each, 8 h interval), starting from the day of minipump insertion until day 2 post-surgery.

[4] = Horizontal locomotion in activity chambers; conditions: i.p. 30 min before testing; prucalopride 2.5 mg/kg, RS 67333 1.5 mg/kg
Description: All data are expressed as mean±S.E.M. of eight animals per group, and are from an observation of 4 min duration. Rats experienced a pre-test session (15 min) 24 h before the test session. The 5-HT4 agonists were administered 30 min before the test session. […] Data are expressed as mean±S.E.M. of eight animals per group, and are from an observation of 10 min duration. The 5-HT4 agonists were administered 30 min before testing. *p<0.05, **p<0.01 vs the vehicle, Dunnett's test;
Thirty min after drug administration, rats were placed in activity cages in whom photoelectric cells were inserted allowing recordings of locomotor activity, i.e. quantification of the total number of activity counts (photocell beam breaks) during 10 min. session.

DRN 5-HT neurons [5] = test: Reversal by acute prucalopride of the inhibition of DRN 5-HT neuron firing rate induced by i.v. SSRIs; format: in vivo, rat
From the text: FIGS. 6A and 6B illustrate the effect of prucalopride on the inhibition of 5-HT neuronal firing rate induced by SSRIs fluxoamine and citalopram.
In FIGS. 6A and 6B, the firing activity of the 5-HT neuron is suppressed following the acute intravenous administration of the antidepressant SSRIs fluvoxamine and citalopram. This suppression of the firing activity is due to the activation of the 5-HT1A autoreceptors, subsequent to the increase of the concentration of endogenous 5-HT, following the blockade of the 5-HT reuptake sites.

| effect on rat locomotion (activity counts, 10 min) [4] | SMILES | enhancement of DRN 5-HT neuron mean firing rate vs control (DRN 5-HT neurons [1]; 3-day continuous treatment) | enhancement of DRN 5-HT neuron mean firing rate vs control (DRN 5-HT neurons [1]; 21-day continuous treatment) | increase of DRN 5-HT neuron firing rate with respect to controls (DRN 5-HT neurons [1]) | size of clusters of BrdU-positive cells [2] | density of BrdU-positive cells in the SGZ ([2]; control 44.9±17.2) | pCREB/CREB ratio in hippocampal tissue [3] | share of 5-HT neurons in which the suppression is reversed (DRN 5-HT neurons [5]; acute prucalopride) | effect of prucalopride on SSRI-induced suppression of 5-HT neuron firing (DRN 5-HT neurons [5]; acute prucalopride after fluvoxamine or citalopram i.v.) | increase of pCREB/CREB ratio vs control [3] |
| --- | --- | --- | --- | --- | --- | --- | --- | --- | --- | --- |
|  | CCCCN1CCC(CCC(=O)c2cc(Cl)c(N)cc2OC)CC1 [RS 67333, 1-(4-amino-5-chloro-2-methoxyphenyl)-3-(1-n-burtl-4-piperidinyl)-1-propanone] | 79% | 59% | 66% | 6 to 10 clones | 200.2±44.9 per mm^2 | 0.373±0.07 |  |  |  |
| 78% | COCCCN1CCC(NC(=O)c2cc(Cl)c(N)c3c2OCC3)CC1 [prucalopride] | +50% | +36% | 40% |  |  | 0.302±0.07 | about one-half | partially reverse | +54% |
